Experimental data as given in US7837757B2, “Enhanced abscisic acid and fertilizer performance” (Valent BioSciences Corporation, priority 2007, dated 2010).
Several values for one entry are separate records, joined by “and”; a condition that tells them apart may be missing. Equal values may be shown once. Where a name gives a salt, the structure may show the parent alone.

System: tomato leaf transpiration
Experiment: tomato leaf transpiration inhibition (porometer, normalized to water-sprayed plants)
Assay type: in vivo, Tomato (variety: Rutgers)

## CC1=CC(=O)CC(C)(C)[C@@]1(O)/C=C/C(C)=C\C(=O)O [ABA ammonium salt, Ammonium Salt of (S)-(+)-Abscisic Acid]
In vivo
  Transpiration rate (% of control): 57 % of control and 67 % of control and 78 % of control and 76 % of control and 88 % of control
  Transpiration rate (% of control), Average: 68 % of control and 81 % of control

## [Ca+2].[Cl-].[Cl-] [CaCl2, calcium chloride]
In vivo
  Transpiration rate (% of control): 97 % of control and 101 % of control and 98 % of control
  effect on tomato leaf transpiration (in words): did not affect tomato leaf transpiration

## NC(N)=O [Urea, urea]
1 mM urea alone, foliar, 1 day after treatment
  Transpiration rate (% of control): 103 % of control
1 mM urea alone, foliar, 2 days after treatment
  Transpiration rate (% of control): 98 % of control
1 mM urea alone, foliar, 3 days after treatment
  Transpiration rate (% of control): 98 % of control
1 mM urea alone, foliar, 4 days after treatment
  Transpiration rate (% of control): 100 % of control
10 mM urea alone, foliar, 1 day after treatment
  Transpiration rate (% of control): 101 % of control
10 mM urea alone, foliar, 2 days after treatment
  Transpiration rate (% of control): 103 % of control
10 mM urea alone, foliar, 3 days after treatment
  Transpiration rate (% of control): 106 % of control
10 mM urea alone, foliar, 4 days after treatment
  Transpiration rate (% of control): 101 % of control
100 mM urea alone, foliar, 1 day after treatment
  Transpiration rate (% of control): 102 % of control
100 mM urea alone, foliar, 2 days after treatment
  Transpiration rate (% of control): 102 % of control
100 mM urea alone, foliar, 3 days after treatment
  Transpiration rate (% of control): 107 % of control
100 mM urea alone, foliar, 4 days after treatment
  Transpiration rate (% of control): 102 % of control
Fertilizer or salt alone at 1, 10 or 100 mM, foliar
  effect on tomato leaf transpiration (in words): did not reduce tomato leaf transpiration

## (S)-5-(1-hydroxy-2,6,6,-trimethyl-4-oxo-2-cyclohexen-1-yl)-3-methyl-(2Z,4E)-pentadienoic acid [ABA, reference compound]
In vivo
  Transpiration rate (% of control), Average: 69 % of control and 78 % of control
